# Measurements published in patent US11702402B2, “Small molecules that block proteasome-associated ubiquitin receptor RPN13 function and uses thereof” (DANA-FARBER CANCER INSTITUTE, INC., priority 2018, dated 2023).
# Experiments:
# [1] = test system: p53/p21 apoptotic signaling axis; experiment: p53/p21 signaling immunoblot; assay type: cell-based, Human; details: ANBL6.BR; WL40 (1 μM) versus RA190 (1 μM)
# RPN13 = RPN13 (Homo sapiens, UniProt Q16186); experiment: Rpn13 flow cytometry in MM.1S cells; assay type: cell-based; parameters: endogenous in cells; host or cells: MM.1S; MM.1S-CRBN KO; RPMI-8226; ANBL6.BR; details: WL40 (400 nM) 16 hours, versus DMSO or RA190 (500 nM)
# Chain of RPN13 (Q16186 whole entry): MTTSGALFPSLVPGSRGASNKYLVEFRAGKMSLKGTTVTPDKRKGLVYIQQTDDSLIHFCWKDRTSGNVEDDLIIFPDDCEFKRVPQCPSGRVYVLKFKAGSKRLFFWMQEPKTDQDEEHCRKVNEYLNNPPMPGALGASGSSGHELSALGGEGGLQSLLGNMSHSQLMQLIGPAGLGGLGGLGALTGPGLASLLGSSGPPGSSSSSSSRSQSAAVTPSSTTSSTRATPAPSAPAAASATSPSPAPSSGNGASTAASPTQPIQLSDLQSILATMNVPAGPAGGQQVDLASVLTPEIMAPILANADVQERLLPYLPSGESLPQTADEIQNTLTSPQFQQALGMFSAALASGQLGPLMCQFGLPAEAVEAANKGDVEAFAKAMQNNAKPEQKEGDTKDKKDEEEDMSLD
# Method: FIGS. 19A-19I show the exemplary design and characterization of exemplary Rpn13 degrader WL40. […] WL40 was created by linking the Rpn13 inhibitor RA190 to the IMiD thalidomide as a ligand for the CRBN E3 ligase via a PEG linker. […] FIG. 19C is a schematic cartoon for the novel AlphaScreen assay to measure the binding activity of inhibitor with RPN13 proteins. […] FIG. 19E depicts immunoblot analysis of multiple myeloma 1S (MM.1S) cells, which were treated with WL40 or RA190 at the indicated concentrations and time periods; protein lysates were subjected to the immunoblot analysis using anti-Rpn13 or anti-tubulin Abs. FIG. 19F depicts flow cytometry analysis of MM.1S cells, which were treated with DMSO control, WL40 (400 nM), or RA190 (500 nM) for 16 hours; cells were then washed and stained with Rpn13 Ab conjugated with AlexaFluor-647, followed by the flow cytometry analysis. […] Data was quantified using FACS Diva (BD Biosciences, USA) and FlowJo (FlowJo LLC, USA). […]
# Next, it was examined whether WL40 decreases cellular Rpn13 levels in MM cells. MM.1S cells were treated with various concentrations of WL40 (20 0 nM, 400 nM, or 800 nM) for 4 hours, 8 hours, and 16 hours; protein lysates were then analyzed for Rpn13 levels using immunoblot analysis. […] To further corroborate the findings, MM.1S cells were treated with WL40, and then analyzed intracellular alterations in Rpn13 using flow cytometry.
# normal PBMCs = experiment: Viability of normal PBMCs; assay type: cell-based, Human; details: 48 hours
# Method: FIGS. 5A and 5B show PBMCs from normal healthy donor treated with WL40 and WL44 at the indicated concentrations for 48 hours. […]
# (§1) The IC50 of WL40 for cell lines is shown.
# [2] = test system: MM.1S cells co-cultured with patient BMSCs; experiment: MM.1S co-culture with patient BMSCs (WST); assay type: cell-based, Human; details: 48 hours
# Text: as §1
# RPMI-8226 cells = experiment: RPMI-8226 cell viability; assay type: cell-based, Human; details: p53-mutated RPMI-8226; 48 hours
# Text: as §1
# CD138+ patient MM cells = experiment: Viability of CD138+ patient MM cells (CellTiter-Glo); assay type: cell-based; details: Homo sapiens, CD138+ patient MM cells (patients 1-4), 48 hours, read-out: cell viability IC50 range
# Method: as §1
# Human MM cell lines MM.1S, MM.1R, RPMI-8226, ANBL6.WT, ANBL6.BR, DOX40, INA6, and normal PBMCs were cultured in RPMI1640 complete medium. Informed consent was obtained from ah patients in accordance with the Helsinki protocol. MM CD138-positive cells, bone marrow stromal cells (BMSCs), and plasmacytoid dendritic cells (pDCs) from MM patients were isolated and cultured as described previously.^32
smiles,measurement,setting,value
O=C1CCC(N2C(=O)c3cccc(NCCOCCOCCOCCC(=O)N[C@@H](Cc4ccccc4)C(=O)N4C/C(=C\c5ccc(Cl)c(Cl)c5)C(=O)/C(=C/c5ccc(Cl)c(Cl)c5)C4)c3C2=O)C(=O)N1 (stereo partly shown) [WL40],induction of p53/p21 signaling,[1],earlier induction of this pathway
same,Rpn13 expression (flow cytometry),RPN13,significant reduction in Rpn13 expression
same,viability of normal PBMCs,"normal PBMCs; at the IC50, Wst-1",do not significantly affect the viability
same,viability of normal PBMCs,"normal PBMCs; at the IC50 for MM cells, CellTiter-Glo",does not affect viability of normal PBMCs
same,viability of MM cells in co-culture,[2],dose-dependent decrease in the viability of MM cells
same,cytotoxic activity (cell viability),RPMI-8226 cells,cytotoxic activity
same,IC50,CD138+ patient MM cells,95 to 170 nM
